One series has as its target Fom3 (Streptomyces fradiae, UniProt D2SNF5). As to the kind of experiment: Mössbauer spectroscopy of […]-labelled enzyme. Format: binding. The note with it: 4.2 K, 53 mT; binds to the [4Fe-4S] cluster.
The target in a further series is FomD (Streptomyces fradiae, UniProt D2SNF7). The series can be described thus: […]-NMR hydrolysis assay. The series is classed as biochemical. The note with it: 100 μM FomD, 6 mM racemic HPP-CMP.
Substrate in series [1]: Nc1ccn([C@@H]2O[C@H](COP(=O)(O)OP(=O)(O)CCO)[C@@H](O)[C@H]2O)c(=O)n1
As to the kind of experiment: steady-state kinetics, HPP-CMP formation by LC-MS/MS. Format: biochemical, Streptomyces fradiae. Particulars: 1 μM Fom3, SAM, Ti(III)citrate as reductant, anaerobic.

Chain of FomD (D2SNF7 whole entry): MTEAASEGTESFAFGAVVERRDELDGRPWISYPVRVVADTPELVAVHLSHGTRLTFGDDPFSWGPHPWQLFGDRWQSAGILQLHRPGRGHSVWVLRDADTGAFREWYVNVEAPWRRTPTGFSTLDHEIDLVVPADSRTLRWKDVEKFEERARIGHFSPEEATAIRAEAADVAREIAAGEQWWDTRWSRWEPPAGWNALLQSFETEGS

With `C[S+](CC[C@H](N)C(=O)O)C[C@H]1O[C@@H](n2cnc3c(N)ncnc32)[C@H](O)[C@@H]1O` (stereo partly shown) [SAM], the “Mössbauer spectroscopy of 57Fe-labelled enzyme” value on Fom3 was “Upon incubating as-isolated Fom3 with SAM”.

Take `CC(O)CP(=O)(O)OP(=O)(O)OC[C@H]1O[C@@H](n2ccc(N)nc2=O)[C@H](O)[C@@H]1O` (stereo partly shown) [HPP-CMP]: the 31P-NMR hydrolysis assay result at FomD was “FomD from S. fradiae was overproduced and purified and then used in a reaction”.

B1: Fom3 (Streptomyces fradiae) (protein)
chain: MTIGSLGSTEFALHGKPAIRWGDLPQRVGKKASRRYQKVLLLNPSATLFRHDLPRCTYPLGLGYIAAVLEKYDYEVKILDVFAEGYYNAQPVDGDEQFLRYGLSDDDIVKVIKEFAPDVIGISSIFSNQADNVHHLLKLADLVAPEAVTSIGGAHARYFPKACLDDPNLDAVFLGEGEMTFLLWLEHLNGNVREDEVHGIAWRDRDGKIQIKPELPLISSMRPEGPEQGKSSPMLSMAGELDHIPFPAWHHYNMEKYFEIKAYQSPYTVGSRVGQLYTSRGCTAHCTFCTTTHFWGQKLRRRSVDNVVNEVLRLRDEYGIDEFHIQDDNITNDMDHARELFRAFKEVGLPWATPQGTALWRMDEELLDLMAESGAYQVTFAIESGVQRVLKDLIKKPLNLGRTSHLIKYARSLGMHVHGFFIIGMPPMFGNAGESIEEMQASYDYAEESGFSSASFFAASPIVGSELLRECIRQGFVDPEESLYRMTYKQGIINVPGLWDGEEIAELAAKFNRDFNARRDRDYTPQKQWNANQY
For the molecule B1, in series [1], the Km came to 74 µM and the kcat is ~0.78 min⁻¹.
